Test results taken from patent US12612409B2, “Pyrrolopyrimidines as CFTR potentiators” (Cystic Fibrosis Foundation, priority 2016, dated 2026).

What was measured:
[1] = biological target: T1, recombinant F508del V470 CFTR in Fischer rat thyroid (FRT) cells (Homo sapiens, UniProt P13569, DEL508-508); assay: FRT ion flux assay of F508del CFTR potentiation; assay type: cell-based; conditions: FRT cells expressing F508del V470 CFTR, forskolin 20 uM, 27° C. pre-incubation
T1 construct: expressed in transfected cells
Description: FRT Ion Flux Assay of F508del CFTR Potentiation
Fischer rat thyroid (FRT) cell lines stably expressing recombinant F508del V470 CFTR and halide-sensitive yellow fluorescent protein (Pedemonte et al., J. Clin. Invest. 115(9) 2564-71 (2005)) were seeded at 25,000 cells/well in 50 uL/well of culture medium into black-walled, clear bottom tissue-culture-treated 384-well plates (Corning, cat. no. 3712). After one day, the cells were pre-incubated at 27° C./5% CO2 for 16-24 hours. The cells were then washed with dPBS and treated with forskolin (20 uM) and test compound for 30 mi by addition of 20 uL of compound dilution buffer (dPBS containing forskolin and test compound). Plates were loaded into FLIPR384 fluorescence imaging plate reader (Molecular Devices). After an initial fluorescence reading, iodide buffer (25 uL) (composition (in mM): 137 NaI, 1.5 K2PO4, 8.1 NaH2PO4, 2.7 KCl, 0.5 MgCl2, 1 CaCl2) was added and a second fluorescence reading was made after approximately 21 seconds. Data treatment involved division of the second fluorescence reading by the initial fluorescence reading, then scaling of the resulting normalized endpoint fluorescence with respect to the responses for DMSO (0%) and a positive control potentiator (100%).

[2] = biological target: T2, CFTR in F508del/F508del primary CF hBE cells (Homo sapiens, UniProt P13569, DEL508-508); assay: Ussing chamber electrophysiology assay of CFTR potentiation in F508del/F508del CF bronchial epithelial cells (27° C.); assay type: cell-based
T2 construct: Primary cystic fibrosis human bronchial epithelial (CF hBE) cells were expanded and cultured; endogenous in cells; host or cells: primary CF human bronchial epithelial cells, genotype F508del/F508del
Description: • SHELXTL, Version 5.1, Bruker AXS, 1997. • PLATON, A. L. Spek, J. Appl. Cryst. 2003, 36, 7-13. • MERCURY, C. F. Macrae, P. R. Edington, P. McCabe, E. Pidcock, G. P. Shields, R. Taylor, M. Towler and J. van de Streek, J. Appl. Cryst. 39, 453-457, 2006. • OLEX2, Dolomanov, O. V.; Bourhis, L. J.; Gildea, R. J.; Howard, J. A. K.; Puschmann, H., (2009). J. Appl. Cryst., 42, 339-341. • R. W. W. Hooft et al. J. Appl. Cryst. (2008). 41. 96-103. • H. D. Flack, Acta Cryst. 1983, A39, 867-881. Using Chamber Electrophysiology Assay of CFTR Potentiation in CF Bronchial Epithelial Cells
Primary cystic fibrosis human bronchial epithelial (CF hBE) cells were expanded and cultured according to published methods (Neuberger et al., Ch. 4 of Cystic Fibrosis, Methods in Molecular Biology vol. 741, pp. 39-54 (2011)). Well-differentiated cells (>30 days at air/liquid interface) on Snapwell filters (Corning Costar, cat. no. 3801) were mounted in Ussing chambers (Physiologic Instruments, Inc., San Diego, CA). […] HEPES buffered physiological saline (composition (in mM): 137 NaCl, 4 KCl, 1 MgCl2, 1.8 CaCl2), 10 HEPES Na) was used in both apical and basolateral chambers. Chambers were bubbled with air to promote mixing and the voltage was clamped to zero. Amiloride (30 uM), forskolin (10 uM), test compound (4 increasing concentrations), and CFTRinh-172 (20 uM) were added sequentially with 20-25 minutes between additions. Short-circuit currents were acquired and analyzed using LabScribe2. Test compound responses were scaled relative to responses for DMSO (0%) and the maximal response of a positive control potentiator (100%).

T1 sequence (P13569 with tags, fused parts or gaps DEL508-508): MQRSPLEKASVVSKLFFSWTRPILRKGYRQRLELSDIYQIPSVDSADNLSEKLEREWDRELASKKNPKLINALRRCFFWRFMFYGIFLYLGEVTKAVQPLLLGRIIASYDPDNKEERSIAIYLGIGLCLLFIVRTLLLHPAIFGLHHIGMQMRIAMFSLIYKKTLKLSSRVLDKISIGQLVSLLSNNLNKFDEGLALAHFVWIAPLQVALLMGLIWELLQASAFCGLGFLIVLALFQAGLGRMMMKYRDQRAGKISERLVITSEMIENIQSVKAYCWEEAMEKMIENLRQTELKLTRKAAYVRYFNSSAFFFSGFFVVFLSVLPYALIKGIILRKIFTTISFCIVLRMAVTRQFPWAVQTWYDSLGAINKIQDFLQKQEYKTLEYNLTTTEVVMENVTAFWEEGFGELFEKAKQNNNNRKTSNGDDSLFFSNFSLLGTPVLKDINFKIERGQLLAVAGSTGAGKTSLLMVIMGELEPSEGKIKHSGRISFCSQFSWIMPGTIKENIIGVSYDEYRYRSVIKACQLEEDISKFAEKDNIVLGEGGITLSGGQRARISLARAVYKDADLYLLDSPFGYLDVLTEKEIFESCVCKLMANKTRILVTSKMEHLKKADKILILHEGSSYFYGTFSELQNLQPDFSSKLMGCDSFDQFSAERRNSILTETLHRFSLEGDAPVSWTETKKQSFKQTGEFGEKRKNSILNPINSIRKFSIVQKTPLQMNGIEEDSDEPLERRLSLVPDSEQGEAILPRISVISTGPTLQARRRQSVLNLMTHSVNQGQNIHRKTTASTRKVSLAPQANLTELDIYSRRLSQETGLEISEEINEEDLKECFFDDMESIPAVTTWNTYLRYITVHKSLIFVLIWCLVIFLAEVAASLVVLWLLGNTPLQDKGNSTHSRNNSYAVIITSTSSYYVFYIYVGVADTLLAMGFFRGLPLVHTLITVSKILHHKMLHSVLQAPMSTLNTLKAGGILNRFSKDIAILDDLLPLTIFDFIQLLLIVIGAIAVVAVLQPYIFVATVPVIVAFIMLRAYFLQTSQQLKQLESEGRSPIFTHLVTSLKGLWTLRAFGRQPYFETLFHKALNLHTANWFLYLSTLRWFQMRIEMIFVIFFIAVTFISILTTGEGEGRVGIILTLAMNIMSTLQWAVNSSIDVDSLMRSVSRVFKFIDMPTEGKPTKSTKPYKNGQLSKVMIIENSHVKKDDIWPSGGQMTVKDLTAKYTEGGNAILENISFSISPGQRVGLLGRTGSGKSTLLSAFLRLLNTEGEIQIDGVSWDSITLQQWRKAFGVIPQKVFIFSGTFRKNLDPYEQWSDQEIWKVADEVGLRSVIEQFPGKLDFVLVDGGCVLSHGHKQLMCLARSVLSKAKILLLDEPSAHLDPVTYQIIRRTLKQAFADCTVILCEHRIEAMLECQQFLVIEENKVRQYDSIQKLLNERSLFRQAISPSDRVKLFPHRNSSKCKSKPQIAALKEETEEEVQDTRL
T2 sequence (P13569 with tags, fused parts or gaps DEL508-508): as above

Structure (SMILES)	EC50 [1] [nM]	EC50 [2] [nM]
CC(c1cnn(-c2ccccc2F)c1)n1c(C#N)c(-c2cnc(C(F)F)nc2)c2c(N)ncnc21 (single isomer, unassigned) [Example 1, 4-Amino-5-[2-(difluoromethyl)pyrimidin-5-yl]-7-{1-[1-(2-fluorophenyl)-1H-pyrazol-4-yl]ethyl}-7H-pyrrolo[2,3-d]pyrimidine-6-carbonitrile]	0.55	1.66
CC(c1cnn(-c2ccccc2F)c1)n1c(C#N)c(-c2cnc(C(F)F)nc2)c2c(N)ncnc21 (single isomer, unassigned) [Example 2, 4-Amino-5-[2-(difluoromethyl)pyrimidin-5-yl]-7-{1-[1-(2-fluorophenyl)-1H-pyrazol-4-yl]ethyl}-7H-pyrrolo[2,3-d]pyrimidine-6-carbonitrile]	7.51	8.77
CCC(c1cnn(-c2ccccc2F)c1)n1c(C#N)c(-c2cnc(C(F)(F)F)nc2)c2c(N)ncnc21 (single isomer, unassigned) [Example 3, 4-Amino-7-{1-[1-(2-fluorophenyl)-1H-pyrazol-4-yl]propyl}-5-[2-(trifluoromethyl)pyrimidin-5-yl]-7H-pyrrolo[2,3-d] pyrimidine-6-carbonitrile]	9.17	3.36
CCC(c1cnn(-c2ccccc2F)c1)n1c(C#N)c(-c2cnc(C(F)(F)F)nc2)c2c(N)ncnc21 (single isomer, unassigned) [Example 4, 4-Amino-7-{1-[1-(2-fluorophenyl)-1H-pyrazol-4-yl]propyl}-5-[2-(trifluoromethyl)pyrimidin-5-yl]-7H-pyrrolo[2,3-d] pyrimidine-6-carbonitrile]	0.61	0.56
CC(c1cnn(-c2ccccc2F)c1)n1c(C#N)c(-c2cnc(C(F)(F)F)nc2)c2c(N)ncnc21 (single isomer, unassigned) [Example 5, 4-Amino-7-(1-(1-(2-fluorophenyl)-1H-pyrazol-4-yl)ethyl)-5-(2-(trifluoromethyl)pyrimidin-5-yl)-7H-pyrrolo[2,3-d] pyrimidine-6-carbonitrile]	7.69	7.73
CC(c1cnn(-c2ccccc2F)c1)n1c(C#N)c(-c2cnc(C(F)(F)F)nc2)c2c(N)ncnc21 (single isomer, unassigned) [Example 6, 4-Amino-7-(1-(1-(2-fluorophenyl)-1H-pyrazol-4-yl)ethyl)-5-(2-(trifluoromethyl)pyrimidin-5-yl)-7H-pyrrolo[2,3-d] pyrimidine-6-carbonitrile]	1.01	1.19
CC(c1cnn(-c2ccc(F)cc2F)c1)n1c(C#N)c(-c2cnc(C(F)(F)F)nc2)c2c(N)ncnc21 (single isomer, unassigned) [Example 7, 4-Amino-7-{1-[1-(2,4-difluorophenyl)-1H-pyrazol-4-yl]ethyl}-5-[2-(trifluoromethyl)pyrimidin-5-yl]-7H-pyrrolo[2,3-d] pyrimidine-6-carbonitrile]	2.76	1.84
CC(c1cnn(-c2ccc(F)cc2F)c1)n1c(C#N)c(-c2cnc(C(F)(F)F)nc2)c2c(N)ncnc21 (single isomer, unassigned) [Example 8, 4-Amino-7-{1-[1-(2,4-difluorophenyl)-1H-pyrazol-4-yl]ethyl}-5-[2-(trifluoromethyl)pyrimidin-5-yl]-7H-pyrrolo[2,3-d] pyrimidine-6-carbonitrile]	35.2	15.5
CC(c1cn(-c2ccccc2F)nn1)n1c(C#N)c(-c2cnc(C(F)(F)F)nc2)c2c(N)ncnc21 (single isomer, unassigned) [Example 9, 4-amino-7-{1-[1-(2-fluorophenyl)-1H-1,2,3-triazol-4-yl]ethyl}-5-[2-(trifluoromethyl)pyrimidin-5-yl]-7H-pyrrolo[2,3-d] pyrimidine-6-carbonitrile]	12.2	20.4
CC(c1cn(-c2ccccc2F)nn1)n1c(C#N)c(-c2cnc(C(F)(F)F)nc2)c2c(N)ncnc21 (single isomer, unassigned) [Example 10, 4-Amino-7-{1-[1-(2-fluorophenyl)-1H-1,2,3-triazol-4-yl]ethyl}-5-[2-(trifluoromethyl)pyrimidin-5-yl]-7H-pyrrolo[2,3-d]pyrimidine-6-carbonitrile]	77.6	70.3
CC(c1cn(-c2ccc(F)cc2F)nn1)n1c(C#N)c(-c2cnc(C(F)(F)F)nc2)c2c(N)ncnc21 (single isomer, unassigned) [Example 11, 4-Amino-7-{1-[1-(2,4-difluorophenyl)-1H-1,2,3-triazol-4-yl]ethyl}-5-[2-(trifluoromethyl)pyrimidin-5-yl]-7H-pyrrolo[2,3-d] pyrimidine-6-carbonitrile]	19.8	33.5
Cc1c(C(C)n2c(C#N)c(-c3cnc(C(F)(F)F)nc3)c3c(N)ncnc32)nnn1-c1ccccc1F (single isomer, unassigned) [Example 12, 4-amino-7-(1-(1-(2-fluorophenyl)-5-methyl-1H-1,2,3-triazol-4-yl)ethyl)-5-(2-(trifluoromethyl)pyrimidin-5-yl)-7H-pyrrolo[2,3-d]pyrimidine-6-carbonitrile]	6.66	22.5
Cc1c(C(C)n2c(C#N)c(-c3cnc(C(F)(F)F)nc3)c3c(N)ncnc32)nnn1-c1ccccc1F (single isomer, unassigned) [Example 13, 4-amino-7-(1-(1-(2-fluorophenyl)-5-methyl-1H-1,2,3-triazol-4-yl)ethyl)-5-(2-(trifluoromethyl)pyrimidin-5-yl)-7H-pyrrolo[2,3-d] pyrimidine-6-carbonitrile]	96.8	267
COc1ncc(-c2c(C#N)n(C(C)c3cc(-c4ccccc4F)no3)c3ncnc(N)c23)cn1 (single isomer, unassigned) [Example 14, 4-amino-7-{1-[3-(2-fluorophenyl)-1,2-oxazol-5-yl]ethyl}-5-(2-methoxypyrimidin-5-yl)-7H-pyrrolo[2,3-d]pyrimidine-6-carbonitrile]	23.6	13
COc1ncc(-c2c(C#N)n(C(C)c3cc(-c4ccccc4F)no3)c3ncnc(N)c23)cn1 (single isomer, unassigned) [Example 15, 4-amino-7-{1-[3-(2-fluorophenyl)-1,2-oxazol-5-yl]ethyl}-5-(2-methoxypyrimidin-5-yl)-7H-pyrrolo[2,3-d]pyrimidine-6-carbonitrile]	7.22	7
CCC(c1cn(-c2ccc(F)cc2F)nn1)n1c(C#N)c(-c2cnc(C(F)(F)F)nc2)c2c(N)ncnc21 (single isomer, unassigned) [Example 16, 4-Amino-7-{1-[1-(2,4-difluorophenyl)-1H-1,2,3-triazol-4-yl]propyl}-5-[2-(trifluoromethyl)pyrimidin-5-yl]-7H-pyrrolo[2,3-d] pyrimidin-6-carbonitrile]	6.39	9
CCC(c1cn(-c2ccc(F)cc2F)nn1)n1c(C#N)c(-c2cnc(C(F)(F)F)nc2)c2c(N)ncnc21 (single isomer, unassigned) [Example 17, 4-Amino-7-{1-[1-(2,4-difluorophenyl)-1H-1,2,3-triazol-4-yl]propyl}-5-[2-(trifluoromethyl)pyrimidin-5-yl]-7H-pyrrolo[2,3-d] pyrimidin-6-carbonitrile]	45.3	49.5
Nc1ncnc2c1c(-c1ccc(Cl)cc1)cn2Cc1nnc(-c2ccccc2)[nH]1 [Example 284, 5-(4-Chlorophenyl)-7-[(5-phenyl-4H-1,2,4-triazol-3-yl)methyl]-7H-pyrrolo[2,3-d]pyrimidin-4-amine]		551
